Data reported in paper PMC8151276, “An Integrated Approach toward NanoBRET Tracers for Analysis of GPCR Ligand Engagement” (Molecules, 2021).

Tests used:
HTR1A = target: T1, HTR1A (Homo sapiens, UniProt P08908); test: NanoBRET screen HiBiT-HTR1A in HEK293; assay type: binding; details: HTR1A
T1 construct: purchased Promega (in-house HiBiT-GPCR construct library, NanoBRET)
T1 sequence (P08908 1-422): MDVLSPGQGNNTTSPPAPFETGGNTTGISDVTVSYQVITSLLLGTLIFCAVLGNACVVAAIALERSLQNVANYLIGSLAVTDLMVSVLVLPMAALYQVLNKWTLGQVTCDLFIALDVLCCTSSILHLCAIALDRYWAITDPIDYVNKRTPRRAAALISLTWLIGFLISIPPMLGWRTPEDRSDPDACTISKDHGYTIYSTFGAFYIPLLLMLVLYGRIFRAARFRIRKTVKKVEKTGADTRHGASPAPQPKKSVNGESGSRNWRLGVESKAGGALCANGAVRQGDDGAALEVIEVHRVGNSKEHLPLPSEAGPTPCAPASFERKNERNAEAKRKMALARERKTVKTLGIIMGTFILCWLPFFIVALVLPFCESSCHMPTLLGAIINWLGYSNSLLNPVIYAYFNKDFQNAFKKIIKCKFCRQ
Experimental: (§1) Each tracer candidate was screened across the entire library of HiBiT-GPCR constructs using NanoBRET as the detection modality. As depicted in Figure 4A, the specificity of interactions was evaluated through decrease in BRET due to competitive displacement of a bound tracer by excess parental compound. Each tracer was analyzed for binding to each HiBiT-GPCR fusion in the absence and in the presence of competing parental compound. Briefly, HEK293 cells were transfected with HiBiT-GPCR constructs diluted into promoterless DNA to reduce expression and maximize translocation to the cell surface. Each tracer candidate was then screened at concentrations of 1 μM and 0.1 μM across cells expressing these fusions. Cells were treated for 1.5 h with tracer either alone or in the presence of 20 μM competing parental compound (i.e., control). BRET was measured upon addition of purified LgBiT and subsequent complementation with HiBiT genetically fused to a GPCR. The specificity of interactions was assessed through a decrease in BRET signal due to competitive displacement of the bound tracer. To further gauge the robustness of these interactions, the fold response over the control (i.e., BRETtracer/BRETcontrol) was calculated. We chose a 1.5-fold response, which translates to ≥7-fold signal over noise as the minimal threshold required to score an interaction as positive.
(§2) HiBiT-GPCR DNA constructs were diluted in 10 mM Tris pH 8 to a final concentration of 0.01 μg/μL, arrayed in 96-well plates and stored at −20 °C. For transfection, HEK293 cells were suspended in Opti-MEM (without phenol red) supplemented with 2% fetal bovine serum (Seradigm) and 100 units/mL penicillin–streptomycin (Gibco) at a final concentration of 220,000 cells/mL and dispensed into white 96-well plates at 90 μL/well. Subsequent transfections and screens were carried using an Agilent Bravo Automated Liquid Handling Platform. First, the 96-well HiBiT DNA arrays were diluted 25-fold in Opti-MEM (without serum or phenol red) to a final concentration of 0.0004 μg/μL and 20 μL of the diluted DNAs were transferred into new 96-well plates. Next, promoterless carrier DNA (1 μg/μL) was diluted 25-fold (0.04 μg/μL) and then dispensed into the diluted arrays at 20 μL/well. Following brief mixing, Viafect transfection reagent (Promega) diluted 16-fold into Opti-MEM was dispensed into the plates at 40 μL/well. After mixing by pipetting, plates were incubated for 10 min on the pipetting station deck. The DNA-transfection reagent complexes were then added to plates containing cells. To facilitate the screen, 10 μL of DNA-transfection reagent complexes were added in duplicates to the top 4 and bottom 4 rows, resulting in two identical 48-well arrays per plate. Plates with transfected cells were incubated for 18–20 h at 37 °C/5% CO2. A screen of each tracer across the entire library using two different concentrations requires duplicate plates of transfected cells. Depending on the number of tracers being screened, transfections can be scaled up using the same ratios. The next day, for each tracer, four 20× screening solutions in tracer dilution buffer (Promega) were prepared: two duplicates at final concentration of 20 μM and two duplicates at a final concentration of 2 μM. […] The four resulting solutions were diluted 4-fold in Opti-MEM without serum or phenol red to generate 5× solutions (5 µM and 0.5 µM tracer +/− 100 μM competing compound). To screen the library, a BioTek MultiFlo FX liquid dispenser was used to dispense 22.5 µL of tracer solution to the top 4 rows and 22.5 µL tracer + competing compound solution to the 4 bottom rows. Plates were briefly mixed on an orbital shaker and incubated for 1.5 h at room temperature. […] Plates were briefly mixed on an orbital shaker and incubated for 15 min to allow complementation.

OPRM1 = target: T2, OPRM1 (Homo sapiens, UniProt P35372); test: NanoBRET screen HiBiT-OPRM1 in HEK293; assay type: binding; details: OPRM1
T2 construct: purchased Promega (in-house HiBiT-GPCR construct library, NanoBRET)
T2 sequence (P35372 whole entry): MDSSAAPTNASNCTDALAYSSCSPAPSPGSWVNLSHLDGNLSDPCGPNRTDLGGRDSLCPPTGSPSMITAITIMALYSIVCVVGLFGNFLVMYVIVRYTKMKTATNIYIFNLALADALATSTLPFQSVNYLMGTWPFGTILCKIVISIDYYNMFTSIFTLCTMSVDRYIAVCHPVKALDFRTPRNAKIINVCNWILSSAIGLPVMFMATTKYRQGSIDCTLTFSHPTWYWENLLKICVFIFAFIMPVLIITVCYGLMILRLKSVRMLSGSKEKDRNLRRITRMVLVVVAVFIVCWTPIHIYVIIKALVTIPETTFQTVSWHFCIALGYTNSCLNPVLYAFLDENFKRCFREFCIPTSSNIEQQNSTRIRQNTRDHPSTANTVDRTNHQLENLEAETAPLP
Experimental: as §1, §2

Structure (SMILES): CN1CCN(C2=Nc3cc(Cl)ccc3Nc3ccc(CNC(=O)CCOCCOCCOCCOCCNC(=O)CCc4ccc5n4[B-](F)(F)[N+]4=C(c6ccc[nH]6)C=CC4=C5)cc32)CC1 [Clozapine-b-2-NB590]
- NanoBRET Fold Response (HTR1A; 0.1μM tracer): 0.98
- NanoBRET Fold Response (HTR1A; 1μM tracer): 1.21
- NanoBRET Fold Response (OPRM1; 0.1μM tracer): 0.96
- NanoBRET Fold Response (OPRM1; 1μM tracer): 0.86

Structure (SMILES): CN1CCN(C2=Nc3cc(Cl)ccc3N(CC(=O)NCCOCCOCCOCCOCCNC(=O)CCc3ccc4n3[B-](F)(F)[N+]3=C(c5ccc[nH]5)C=CC3=C4)c3ccccc32)CC1 [Clozapine-c-2-NB590]
- NanoBRET Fold Response (HTR1A; 1μM tracer): 1.12
- NanoBRET Fold Response (OPRM1; 0.1μM tracer): 0.98
- NanoBRET Fold Response (OPRM1; 1μM tracer): 0.94

Structure (SMILES): O=C(CCOCCOCCOCCOCCNC(=O)CCc1ccc2n1[B-](F)(F)[N+]1=C(c3ccc[nH]3)C=CC1=C2)NCCCN1CCN(C2=Nc3ccccc3Oc3ccc(Cl)cc32)CC1 [Loxapine-a-2-NB590]
- NanoBRET Fold Response (HTR1A; tracer 0.1μM): 1.15
- NanoBRET Fold Response (HTR1A; tracer 1μM): 1.19
- NanoBRET Fold Response (OPRM1; tracer 0.1μM): 1.06
- NanoBRET Fold Response (OPRM1; tracer 1μM): 1.06

Structure (SMILES): COc1ccccc1N1CCN(CCCCN2C(=O)c3ccc(CNC(=O)CCOCCOCCOCCOCCNC(=O)CCc4ccc5n4[B-](F)(F)[N+]4=C(c6ccc[nH]6)C=CC4=C5)cc3C2=O)CC1 [NAN-190-2-NB590]
- NanoBRET Fold Response (HTR1A; tracer 0.1μM): 2.15
- NanoBRET Fold Response (HTR1A; tracer 1μM): 1.76
- NanoBRET Fold Response (OPRM1; tracer 0.1μM): 0.96
- NanoBRET Fold Response (OPRM1; tracer 1μM): 1.10

Structure (SMILES): COc1ccccc1N1CCN(CCCCN2C(=O)c3ccc(CNC(=O)CCOCCNC(=O)c4ccc(CNC(=O)CCc5ccc6n5[B-](F)(F)[N+]5=C(c7ccc[nH]7)C=CC5=C6)cc4)cc3C2=O)CC1 [NAN-190-3-NB590]
- NanoBRET Fold Response (HTR1A; tracer 1μM): 1.70
- NanoBRET Fold Response (OPRM1; tracer 0.1μM): 1.39
- NanoBRET Fold Response (OPRM1; tracer 1μM): 0.91

Structure (SMILES): O=C(CCc1ccc2n1[B-](F)(F)[N+]1=C(c3ccc[nH]3)C=CC1=C2)NCc1ccc(C(=O)NCCOCCC(=O)N[C@@H]2CC[C@@]3(O)[C@H]4Cc5ccc(O)c6c5[C@@]3(CCN4CC3CC3)[C@H]2O6)cc1 [Naltrexone-3-NB590]
- NanoBRET Fold Response (HTR1A; tracer 0.1μM): 0.94
- NanoBRET Fold Response (HTR1A; tracer 1μM): 1.03
- NanoBRET Fold Response (OPRM1; tracer 0.1μM): 1.59
- NanoBRET Fold Response (OPRM1; tracer 1μM): 1.31

Structure (SMILES): Cc1cc2c(s1)Nc1ccccc1N=C2N1CCN(CCCNC(=O)CCOCCOCCOCCOCCNC(=O)CCc2ccc3n2[B-](F)(F)[N+]2=C(c4ccc[nH]4)C=CC2=C3)CC1 [Olanzapine-a-2-NB590]
- NanoBRET Fold Response (HTR1A; tracer 0.1μM): 0.99
- NanoBRET Fold Response (HTR1A; tracer 1μM): 1.06
- NanoBRET Fold Response (OPRM1; tracer 0.1μM): 0.96
- NanoBRET Fold Response (OPRM1; tracer 1μM): 1.08

Structure (SMILES): O=C(CCc1ccc2n1[B-](F)(F)[N+]1=C(c3ccc[nH]3)C=CC1=C2)NCc1ccc(C(=O)NCCOCCOCCNCC(O)COc2cccc3ccccc23)cc1 (centres unmarked) [Propranolol-3-NB590]
- NanoBRET Fold Response (HTR1A; 0.1μM): 1.38
- NanoBRET Fold Response (HTR1A; 1μM): 1.39
- NanoBRET Fold Response (OPRM1; 0.1μM): 1.02
- NanoBRET Fold Response (OPRM1; 1μM): 1.21

Structure (SMILES): O=C(CCc1ccc2n1[B-](F)(F)[N+]1=C(c3ccc[nH]3)C=CC1=C2)NCCOCCOCCNC(=O)OCCOCCN1CCN(C2=Nc3ccccc3Sc3ccccc32)CC1 [Quetiapine-a-2-NB590]
- NanoBRET Fold Response (HTR1A; tracer 0.1μM): 1.09
- NanoBRET Fold Response (HTR1A; tracer 1μM): 1.04
- NanoBRET Fold Response (OPRM1; tracer 0.1μM): 0.84
- NanoBRET Fold Response (OPRM1; tracer 1μM): 0.89

Structure (SMILES): Cc1nc2n(c(=O)c1CCN1CCC(c3noc4cc(F)ccc34)CC1)CCCC2OC(=O)NCCOCCOCCOCCOCCNC(=O)CCc1ccc2n1[B-](F)(F)[N+]1=C(c3ccc[nH]3)C=CC1=C2 (centres unmarked) [Risperidone-2-NB590]
- NanoBRET Fold Response (HTR1A; tracer 0.1μM): 1.24
- NanoBRET Fold Response (HTR1A; tracer 1μM): 1.15
- NanoBRET Fold Response (OPRM1; tracer 0.1μM): 0.92
- NanoBRET Fold Response (OPRM1; tracer 1μM): 0.96
